From patent US10851067B2, “Kv7 channel activators compositions and methods of use” (Knopp Biosciences LLC, priority 2018, dated 2020) come the findings set out here.

The experiment concerns the target Kv7.2/7.3 (Homo sapiens, UniProt O43525+O43526). Put plainly: Kv7.2/7.3 Thallium Flux Assay. Format: cell-based. Also noted: host or cells: HEK cells, tetracycline-inducible expression. The conditions noted are these: read-out: Kv7.2/7.3 Activity: EC50 of Kv7.2/Kv7.3 activation. An excerpt:
The Thallium Flux Assay is used as a surrogate indicator of potassium channel activity.
The experimental protocol was adapted from the FluxOR™ II Green Potassium Ion Channel Assay User Guide (Pub. No. MAN0016084, Invitrogen). Conditions were optimized for the Kv7.2/7.3 cell line.
The hKV7.2/7.3 cell line was obtained from Chantest (Cleveland, Ohio 44128) cat. #CT6147.
Kv7.2/7.3 cells were maintained in a media containing DMEM/F12; 50/50 (GIBCO cat. #11330), 10% Fetal Bovine Serum (FBS) (GIBCO cat. #26140), 100 units/mL Penicillin-Streptomycin (GIBCO cat. #15140), 0.005 mg/ml Blasticidin (SIGMA 15205), 0.5 mg/mL Geneticin (GIBCO cat. #10131), and 0.1 mg/mL Zeocin (GIBCO cat. #R25001). One day prior to experimentation, cells were plated in 96 well clear bottom plates (Corning cat. #353219) in a media without Blasticidin, Geneticin, or Zeocin. Channel expression was induced by adding tetracycline (Bioline cat. #BIO87030) at a final concentration of 10 ng/mL.
The test compound is diluted in a mixture of 0.1% DMSO/extracellular solution with an eight-point concentration range from 0.014 μM to 30 μM. Serial dilutions were made on a Biomek NXP (BECKMAN COULTER).
Measurement and Data Analysis:
A plate reader (Enspire, Perkin Elmer) is used to characterize the ion-channel modulating properties of novel compounds using an excitation wavelength of 475 nm and an emission wavelength of 530 nm. After a 15 sec baseline measurement, the stimulus buffer containing thallium and potassium is injected. A final endpoint measure is taken after 90 sec. Responses are normalized to positive control (retigabine, 30 µM max). Mean normalized responses at each concentration tested are fit to the standard Hill equation to generate an EC50 and maximal response.
As to `CC1(n2c(NC(=O)CC3CC(F)(F)C3(F)F)nc3c(F)ccc(C#N)c32)CCC1` (single isomer, unassigned) [Example 548, N-(7-cyano-4-fluoro-1-(1-methylcyclobutyl)-1H-benzo[d]imidazol-2-yl)-2-(2,2,3,3-tetrafluorocyclobutyl)acetamide], the EC50 was under 1000 nM.

`CC(C)(C)n1c(NC(=O)CC2(C(F)(F)F)CC2)nc2cc(F)cc(F)c21` [Example 531, N-(1-(tert-butyl)-5,7-difluoro-1H-benzo[d]imidazol-2-yl)-2-(1-(trifluoromethyl)cyclopropyl)acetamide]: the EC50 is under 1000 nM.

As to `CC(C)(C)CC(=O)Nc1nc2ccc(C#N)c(C(F)(F)F)c2n1C1CCC1` [Example 507, N-(6-cyano-1-cyclobutyl-7-(trifluoromethyl)-1H-benzo[d]imidazol-2-yl)-3,3-dimethylbutanamide], the EC50 was under 1000 nM.

For the compound `CC(C)(CC(=O)Nc1nc2ccc(F)c(C#N)c2n1C1(C)CCC1)C1CC1` [Example 541, N-(7-cyano-6-fluoro-1-(1-methylcyclobutyl)-1H-benzo[d]imidazol-2-yl)-3-cyclopropyl-3-methylbutanamide], the EC50 is under 1000 nM.

`CC(C)(O)c1ccc2nc(NC(=O)CC3CC(F)(F)C3(F)F)n(C3(C)CCC3)c2c1` (stereo not shown) [Example 491, N-(6-(2-hydroxypropan-2-yl)-1-(1-methylcyclobutyl)-1H-benzo[d]imidazol-2-yl)-2-(2,2,3,3-tetrafluorocyclobutyl)acetamide]: the EC50 was under 1000 nM.

For `CC1(n2c(NC(=O)CC3CC(F)(F)C3(F)F)nc3ccc(C#N)c(OC(F)(F)F)c32)CCC1` (single isomer, unassigned) [Example 493, N-(6-cyano-1-(1-methylcyclobutyl)-7-(trifluoromethoxy)-1H-benzo[d]imidazol-2-yl)-2-(2,2,3,3-tetrafluorocyclobutyl)acetamide], the EC50 is under 1000 nM.

For the compound `CC(C)(C)n1c(NC(=O)CC2CC(F)(F)C2(F)F)nc2cc(F)c(F)cc21` (single isomer, unassigned) [Example 557, N-(1-(tert-butyl)-5,6-difluoro-1H-benzo[d]imidazol-2-yl)-2-(2,2,3,3-tetrafluorocyclobutyl)acetamide], the EC50 is under 1000 nM.

As to `CC(C)(C)n1c(NC(=O)CC2CC(F)(F)C2(F)F)nc2cc(F)cc(F)c21` (single isomer, unassigned) [Example 532, N-(1-(tert-butyl)-5,7-difluoro-1H-benzo[d]imidazol-2-yl)-2-(2,2,3,3-tetrafluorocyclobutyl)acetamide], the EC50 is under 1000 nM.

With `CC(C(=O)Nc1nc2ccc(Cl)c(F)c2n1C1(C)CCC1)C1(C(F)(F)F)CC1` (single isomer, unassigned) [Example 556, N-(6-chloro-7-fluoro-1-(1-methylcyclobutyl)-1H-benzo[d]imidazol-2-yl)-2-(1-(trifluoromethyl)cyclopropyl)propanamide], the EC50 was under 1000 nM.

On to `CC(C)(n1c(NC(=O)CC2CC(F)(F)C2(F)F)nc2ccc(C#N)cc21)C(F)(F)F` (single isomer, unassigned) [Example 488, N-(6-cyano-1-(1,1,1-trifluoro-2-methylpropan-2-yl)-1H-benzo[d]imidazol-2-yl)-2-(2,2,3,3-tetrafluorocyclobutyl)acetamide], for which the EC50 is under 1000 nM.

Take `CC(C(=O)Nc1nc2c(F)cc(C#N)cc2n1C1(C)CCC1)C1(C(F)(F)F)CC1` (single isomer, unassigned) [Example 494, N-(6-cyano-4-fluoro-1-(1-methylcyclobutyl)-1H-benzo[d]imidazol-2-yl)-2-(1-(trifluoromethyl)cyclopropyl)propanamide]: the EC50 is under 1000 nM.

On to `CC1(n2c(NC(=O)CC3(C(F)(F)F)CC3)nc3cc(F)ccc32)CCC1` [Example 527, N-(5-fluoro-1-(1-methylcyclobutyl)-1H-benzo[d]imidazol-2-yl)-2-(1-(trifluoromethyl)cyclopropyl)acetamide], for which the EC50 is under 1000 nM.

`CC(C(=O)Nc1nc2c(F)cc(C(C)(C)O)cc2n1C1CCC1)C(C)(C)C(F)(F)F` (single isomer, unassigned) [Example 515, N-(1-cyclobutyl-4-fluoro-6-(2-hydroxypropan-2-yl)-1H-benzo[d]imidazol-2-yl)-4,4,4-trifluoro-2,3,3-trimethylbutanamide]: the EC50 is under 1000 nM.

As for `CC1(n2c(NC(=O)CC3CC(F)(F)C3(F)F)nc3c(F)cc(C#N)c(F)c32)CCC1` (single isomer, unassigned) [Example 542, N-(6-cyano-4,7-difluoro-1-(1-methylcyclobutyl)-1H-benzo[d]imidazol-2-yl)-2-(2,2,3,3-tetrafluorocyclobutyl)acetamide], the EC50 is under 1000 nM.

With `CC(C)(C)CC(=O)Nc1nc2ccc(C(C)(C)O)c(OC(F)(F)F)c2n1C1CCC1` [Example 501, N-(1-cyclobutyl-6-(2-hydroxypropan-2-yl)-7-(trifluoromethoxy)-1H-benzo[d]imidazol-2-yl)-3,3-dimethylbutanamide], the EC50 was 1000 to 3000 nM.

`CC(C)(C)n1c(NC(=O)CC2CC(F)(F)C2(F)F)nc2cc(F)ccc21` (single isomer, unassigned) [Example 529, N-(1-(tert-butyl)-5-fluoro-1H-benzo[d]imidazol-2-yl)-2-(2,2,3,3-tetrafluorocyclobutyl)acetamide]: the EC50 was under 1000 nM.

With `CC(C(=O)Nc1nc2c(F)cc(C#N)cc2n1C1(C)CCC1)C(C)(C)C(F)(F)F` (single isomer, unassigned) [Example 562, N-(6-cyano-4-fluoro-1-(1-methylcyclobutyl)-1H-benzo[d]imidazol-2-yl)-4,4,4-trifluoro-2,3,3-trimethylbutanamide], the EC50 is under 1000 nM.

Consider `CC1(n2c(NC(=O)CC3CC(F)(F)C3(F)F)nc3cc(F)ccc32)CCC1` (single isomer, unassigned) [Example 526, N-(5-fluoro-1-(1-methylcyclobutyl)-1H-benzo[d]imidazol-2-yl)-2-(2,2,3,3-tetrafluorocyclobutyl)acetamide], for which the EC50 was under 1000 nM.

Consider `CC1(n2c(NC(=O)CC3CC(F)(F)C3(F)F)nc3ccc(F)c(C#N)c32)CCC1` (single isomer, unassigned) [Example 536, N-(7-cyano-6-fluoro-1-(1-methylcyclobutyl)-1H-benzo[d]imidazol-2-yl)-2-(2,2,3,3-tetrafluorocyclobutyl)acetamide], for which the EC50 was under 1000 nM.

With `CC1(n2c(NC(=O)CC3(C(F)(F)F)CC3)nc3cc(F)cc(F)c32)CCC1` [Example 522, N-(5,7-difluoro-1-(1-methylcyclobutyl)-1H-benzo[d]imidazol-2-yl)-2-(1-(trifluoromethyl)cyclopropyl)acetamide], the EC50 is under 1000 nM.

With `CC(C)(O)c1ccc2nc(NC(=O)Cc3ccc(F)cc3F)n(C3(C)CCC3)c2c1` [Example 505, 2-(2,4-difluorophenyl)-N-(6-(2-hydroxypropan-2-yl)-1-(1-methylcyclobutyl)-1H-benzo[d]imidazol-2-yl)acetamide], the EC50 is under 1000 nM.

In the case of `CC1(n2c(NC(=O)CC3CC(F)(F)C3(F)F)nc3cc(F)ccc32)CCC1` (single isomer, unassigned) [Example 525, N-(5-fluoro-1-(1-methylcyclobutyl)-1H-benzo[d]imidazol-2-yl)-2-(2,2,3,3-tetrafluorocyclobutyl)acetamide], the EC50 is under 1000 nM.
